Tests used:
WD NASH model = system: WD NASH model
Experimental: FIG. 6A. Experimental design for pre-clinical testing of AZ505 in the WD NASH model. WD was given at 8 weeks of age for a total of 2 months. AZ505 treatment started one day after WD was initiated. Vehicle (2.5% DMSO in saline) or AZ505 (10 mg/kg in saline containing 2.5% DMSO) was given to mice intraperitoneally 3 times per week. FIG. 6B. Body weight of vehicle or AZ505 treated mice before and after 2 months of WD (n=15 and 14 mice). FIGS. 6C-6D. Liver weight and liver/body weight ratios of vehicle or AZ505 treated mice after 2 months of WD (n=15 and 14). FIG. 6E. Representative liver pictures and H&E staining of liver sections for vehicle or AZ505 treated mice after 2 months of WD. FIGS. 6F-6G. Liver function analysis using plasma ALT and AST (n=15 and 14). FIGS. 6H-6I. Liver triglyceride and cholesterol analysis (n=15 and 14). FIGS. 6J-6K. Plasma triglyceride and cholesterol analysis (n=15 and 14).
In order to determine if chemical SMYD2 inhibition could serve as orthogonal validation of the genetic findings, and to investigate the therapeutic potential of SMYD2 blockade in fatty liver disease, AZ505 was used. […] WD was fed to WT mice at 8 weeks of age, followed by treatment with vehicle control or AZ505 with a dose of 10 mg/kg (intraperitoneal injection) three times per week (FIG. 6A).
All mice were handled in accordance with the guidelines of the Institutional Animal Care and Use Committee at UT Southwestern. All experiments were done in an age and sex controlled fashion unless otherwise noted. C57BL/6 strain background mice were used for all the experiments. LSL-tdTomato (strain #007914) and Rosa-rtTA; TetO-Cas9 mice (#029415) were obtained from The Jackson Laboratory. Mice homozygous for both Rosa-rtTA and TetO-Cas9 were used to ensure a high Cas9 expression level in the liver. Western Diet (WD) used for NASH modeling is described in (Tsuchida et al., 2018). It is composed of high fat solid food (ENVIGO #TD.120528) and high sugar water containing 23.1 g/L d-fructose (Sigma-Aldrich #F0127) and 18.9 g/L d-glucose (Sigma-Aldrich #G8270).
Liver pieces were fixed in buffered formalin (Fisherbrand #245-685) for 24 h with gentle shaking at 4° C. and then transferred to 70% EtOH for another 24 h with shaking at 4° C. Paraffin embedding, liver sectioning (4 μm thickness), and H&E staining were performed at the UT Southwestern Tissue Management Shared Resource Core. For IHC staining, the following primary antibodies were used: Pten (CST #9559, IHC 1:200); Ki67 (Abcam #AB15580, IHC 1:200). IHC). IHC was performed as previously described (Zhu et al., 2010). TUNEL staining was performed on paraffin embedded liver sections using In Situ Cell Death Detection Kit, Fluorescein (Roche #C755B40) according to the manufacturer's protocol. QuPath software (https://qupath.github.io/) was used to quantify Ki67 and TUNEL staining.
The supernatant after centrifugation (plasma) was analyzed for AST, ALT, cholesterol, and triglyceride using VITROS MicroSlide Technology at the UT Southwestern Metabolic Phenotyping Core. 100-150 mg of liver per sample was weighted and used for lipid extraction and quantification at the UT Southwestern Metabolic Phenotyping Core.

SMYD2 = SMYD2 (Homo sapiens, UniProt Q9NRG4); conditions: cited from earlier work
Chain of SMYD2 (Q9NRG4 whole entry, species assumed): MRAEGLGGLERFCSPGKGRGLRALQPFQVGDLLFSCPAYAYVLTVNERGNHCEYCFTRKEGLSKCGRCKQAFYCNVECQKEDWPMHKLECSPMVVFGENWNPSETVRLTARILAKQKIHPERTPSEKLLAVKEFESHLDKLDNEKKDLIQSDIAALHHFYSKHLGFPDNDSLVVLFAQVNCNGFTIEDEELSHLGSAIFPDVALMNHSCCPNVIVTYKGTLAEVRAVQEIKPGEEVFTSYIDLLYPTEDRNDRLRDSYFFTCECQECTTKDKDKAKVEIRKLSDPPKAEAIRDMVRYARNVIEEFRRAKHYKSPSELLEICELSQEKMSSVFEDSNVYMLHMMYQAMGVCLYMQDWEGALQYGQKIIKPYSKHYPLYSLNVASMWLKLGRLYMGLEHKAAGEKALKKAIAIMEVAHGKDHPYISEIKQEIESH

human SMYD2 = experiment: SMYD2 luciferase reporter assay (dual Renilla/Firefly) for siRNA knockdown in Cos7 cells; assay type: cell-based; conditions: psiCheck2 human Smyd2 luciferase reporter and siRNA co-transfected, 24 h, triplicates (Table 2; text says 48 hours)
[1] = AZ505 10 mg/kg i.p. 3 times per week vs. vehicle, 2 months WD

Row | Compound | % mRNA remaining (compared to Ctrl siRNA) (human SMYD2) [%] | also measured
1 | O=C1COc2c(CCNCCN(C(=O)CCNCCc3ccc(Cl)c(Cl)c3)C3CCCCC3)ccc(O)c2N1 [AZ505] |  | body weight (WD NASH model; [1]): significant reductions; liver appearance (WD NASH model; [1]): Smaller, less pale livers; liver cholesterol (WD NASH model; [1]): modest increase; liver triglycerides (WD NASH model; [1]): significant decrease; liver weight (WD NASH model; [1]): significant reductions; liver/body weight ratios (WD NASH model; [1]): significant reductions; plasma lipids (triglyceride and cholesterol) (WD NASH model; [1]): modest increase; steatosis (liver histology, H&E) (WD NASH model; [1]): dramatically decreased steatosis; transaminitis (plasma ALT and AST) (WD NASH model; [1]): improved; fatty liver disease (overall effect) (WD NASH model; WD NASH model, AZ505 10 mg/kg i.p. 3 times per week, 2 months): ameliorates; tolerability of dose (WD NASH model; mouse, in vivo): well tolerated; IC50 (SMYD2; SMYD2): 120 nM; selectivity for SMYD2 (SMYD2): > 600 fold
2 | SMYD2 310: siRNA to human SMYD2; sense GGAGACUGUAAGACUAACAUU (SEQ 63), antisense UGUUAGUCUUACAGUCUCCUU (SEQ 120) (listed as RNA, chemistry not given here) | 24.0 | 
3 | SMYD2 416-438: siRNA to human SMYD2; sense GAUAAGUUAGACAAUGAGAAG (SEQ 73), antisense UCUCAUUGUCUAACUUAUCCA (SEQ 130) (listed as RNA, chemistry not given here) | 28.5 | 
4 | SMYD2 493: siRNA to human SMYD2; sense CGGAUUCCCUGACAAUGAUUU (SEQ 66), antisense AUCAUUGUCAGGGAAUCCGUU (SEQ 123) (listed as RNA, chemistry not given here) | 20.0 | 
5 | SMYD2 675: siRNA to human SMYD2; sense GAGCUGUACAGGAAAUCAAUU (SEQ 64), antisense UUGAUUUCCUGUACAGCUCUU (SEQ 121) (listed as RNA, chemistry not given here) | 121.4 | 
6 | SMYD2 706-728: siRNA to human SMYD2; sense GGUUUUUACCAGCUAUAUUGA (SEQ 70), antisense AAUAUAGCUGGUAAAAACCUC (SEQ 127) (listed as RNA, chemistry not given here) | 53.2 | 
7 | SMYD2 736: siRNA to human SMYD2; sense CCCAACGGAAGAUAGAAAUUU (SEQ 61), antisense AUUUCUAUCUUCCGUUGGGUU (SEQ 118) (listed as RNA, chemistry not given here) | 115.1 | 
8 | SMYD2 750-772: siRNA to human SMYD2; sense GAAAUGACCGGUUAAGAGAUU (SEQ 78), antisense UCUCUUAACCGGUCAUUUCUA (SEQ 135) (listed as RNA, chemistry not given here) | 26.5 | 
9 | SMYD2 757: siRNA to human SMYD2; sense CCGGUUAAGAGAUUCUUAUUU (SEQ 59), antisense AUAAGAAUCUCUUAACCGGUU (SEQ 116) (listed as RNA, chemistry not given here) | 82.3 | 
10 | SMYD2 758-780: siRNA to human SMYD2; sense CGGUUAAGAGAUUCUUAUUUC (SEQ 75), antisense AAUAAGAAUCUCUUAACCGGU (SEQ 132) (listed as RNA, chemistry not given here) | 38.8 | 
11 | SMYD2 759-781: siRNA to human SMYD2; sense GGUUAAGAGAUUCUUAUUUCU (SEQ 71), antisense AAAUAAGAAUCUCUUAACCGG (SEQ 128) (listed as RNA, chemistry not given here) | 37.7 | 
12 | SMYD2 767-789: siRNA to human SMYD2; sense GAUUCUUAUUUCUUUACCUGU (SEQ 76), antisense AGGUAAAGAAAUAAGAAUCUC (SEQ 133) (listed as RNA, chemistry not given here) | 46.4 | 
13 | SMYD2 894: siRNA to human SMYD2; sense CACGCAACGUCAUUGAAGAUU (SEQ 68), antisense UCUUCAAUGACGUUGCGUGUU (SEQ 125) (listed as RNA, chemistry not given here) | 18.3 | 
14 | SMYD2 1077: siRNA to human SMYD2; sense CCCUGCAAUAUGGACAGAAUU (SEQ 65), antisense UUCUGUCCAUAUUGCAGGGUU (SEQ 122) (listed as RNA, chemistry not given here) | 72.7 | 
15 | SMYD2 1078: siRNA to human SMYD2; sense CCUGCAAUAUGGACAGAAAUU (SEQ 62), antisense UUUCUGUCCAUAUUGCAGGUU (SEQ 119) (listed as RNA, chemistry not given here) | 107.5 | 
16 | SMYD2 1082-1104: siRNA to human SMYD2; sense CAAUAUGGACAGAAAAUCAUU (SEQ 74), antisense UGAUUUUCUGUCCAUAUUGCA (SEQ 131) | 35.2 | 
17 | SMYD2 1249: siRNA to human SMYD2; sense CGGCAAAGAUCAUCCAUAUUU (SEQ 60), antisense AUAUGGAUGAUCUUUGCCGUU (SEQ 117) (listed as RNA, chemistry not given here) | 110.9 | 
18 | SMYD2 1251-1273: siRNA to human SMYD2; sense GCAAAGAUCAUCCAUAUAUUU (SEQ 77), antisense AUAUAUGGAUGAUCUUUGCCG (SEQ 134) (listed as RNA, chemistry not given here) | 30.0 | 
19 | SMYD2 1252-1274: siRNA to human SMYD2; sense CAAAGAUCAUCCAUAUAUUUC (SEQ 69), antisense AAUAUAUGGAUGAUCUUUGCC (SEQ 126) (listed as RNA, chemistry not given here) | 13.1 | 
20 | SMYD2 1276-1298: siRNA to human SMYD2; sense GAUCAAACAGGAAAUUGAAAG (SEQ 72), antisense UUCAAUUUCCUGUUUGAUCUC (SEQ 129) (listed as RNA, chemistry not given here) | 26.6 | 
21 | SMYDS 588: siRNA to human SMYD2; sense CAGCGAUAUUUCCUGAUGUUU (SEQ 67), antisense ACAUCAGGAAAUAUCGCUGUU (SEQ 124) (listed as RNA, chemistry not given here) | 26.3 | 
